Experimental data from the supplement of paper PMC12463676, “Small-molecule dissolution of stress granules by redox modulation benefits ALS models” (Nature Chemical Biology, 2025).

Legend:
potassium arsenate = compound: O=[As]([O-])(O)O.[K+] [potassium arsenate]; assay: thermal stability z-score vs DMSO; higher = more thermally stabilized by treatment; conditions: HeLa; arsenate concentration 1 mM
Procedure: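 Cellular thermal proteome profiling in HeLa cells treated with 1 mM arsenate for 1 h (DMSO pretreatment), heated to ten temperatures (37-66.3 °C). Soluble protein was quantified by TMT mass spectrometry relative to DMSO controls; the thermal stability score was transformed to a z-score; mean of n = 3 experiments.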

lipoamide = compound: NC(=O)CCCCC1CCSS1 [lipoamide]; assay: as above; conditions: HeLa, lipoamide concentration 100 µM
Procedure: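 Cellular thermal proteome profiling in HeLa cells. Cells were treated with 100 µM lipoamide for 1 h, with or without 1 mM arsenate for a further 1 h, then heated to ten temperatures (37-66.3 °C), and soluble protein was quantified by TMT mass spectrometry relative to 0.1% DMSO controls. The thermal stability score (sum of log2 fold changes minus the abundance score) was transformed to a z-score; mean of n = 3 experiments.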

[1] = arsenate co-treatment: 1 mM arsenate 1 h
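Also: each temperature applied for 3 min, abundance score taken as mean log2 fold change at the two lowest temperatures, z-score obtained by mean subtraction and division by SD.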

Chain of UniProt Q6YN16 (Q6YN16 whole entry): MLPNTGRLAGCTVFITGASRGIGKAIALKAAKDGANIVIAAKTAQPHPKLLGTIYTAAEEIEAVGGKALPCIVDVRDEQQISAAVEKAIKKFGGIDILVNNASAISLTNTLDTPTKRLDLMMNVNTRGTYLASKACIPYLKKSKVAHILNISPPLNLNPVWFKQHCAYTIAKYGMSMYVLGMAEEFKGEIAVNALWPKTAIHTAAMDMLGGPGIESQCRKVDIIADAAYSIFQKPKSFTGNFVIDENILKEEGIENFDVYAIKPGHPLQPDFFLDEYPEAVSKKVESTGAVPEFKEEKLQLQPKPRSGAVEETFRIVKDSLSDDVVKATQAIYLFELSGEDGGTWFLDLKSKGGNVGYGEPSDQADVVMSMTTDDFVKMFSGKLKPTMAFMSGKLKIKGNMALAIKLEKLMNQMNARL
Chain of UniProt P14866 (P14866 whole entry): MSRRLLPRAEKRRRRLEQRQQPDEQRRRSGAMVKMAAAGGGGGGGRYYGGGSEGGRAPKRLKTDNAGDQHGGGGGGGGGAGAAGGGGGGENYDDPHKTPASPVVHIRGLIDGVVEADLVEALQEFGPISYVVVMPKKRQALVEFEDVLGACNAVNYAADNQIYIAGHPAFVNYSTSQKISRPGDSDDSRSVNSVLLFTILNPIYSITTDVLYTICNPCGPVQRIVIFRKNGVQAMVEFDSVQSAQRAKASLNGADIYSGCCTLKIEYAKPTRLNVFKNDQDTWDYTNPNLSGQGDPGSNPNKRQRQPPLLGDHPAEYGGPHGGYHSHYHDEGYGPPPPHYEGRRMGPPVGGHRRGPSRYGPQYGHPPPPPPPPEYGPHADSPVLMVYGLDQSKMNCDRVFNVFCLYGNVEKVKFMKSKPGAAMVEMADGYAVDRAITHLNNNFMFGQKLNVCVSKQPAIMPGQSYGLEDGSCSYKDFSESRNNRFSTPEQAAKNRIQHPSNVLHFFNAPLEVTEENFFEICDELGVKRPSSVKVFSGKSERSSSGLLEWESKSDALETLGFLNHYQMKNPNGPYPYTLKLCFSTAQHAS
Chain of UniProt Q9UPZ3 (Q9UPZ3 whole entry): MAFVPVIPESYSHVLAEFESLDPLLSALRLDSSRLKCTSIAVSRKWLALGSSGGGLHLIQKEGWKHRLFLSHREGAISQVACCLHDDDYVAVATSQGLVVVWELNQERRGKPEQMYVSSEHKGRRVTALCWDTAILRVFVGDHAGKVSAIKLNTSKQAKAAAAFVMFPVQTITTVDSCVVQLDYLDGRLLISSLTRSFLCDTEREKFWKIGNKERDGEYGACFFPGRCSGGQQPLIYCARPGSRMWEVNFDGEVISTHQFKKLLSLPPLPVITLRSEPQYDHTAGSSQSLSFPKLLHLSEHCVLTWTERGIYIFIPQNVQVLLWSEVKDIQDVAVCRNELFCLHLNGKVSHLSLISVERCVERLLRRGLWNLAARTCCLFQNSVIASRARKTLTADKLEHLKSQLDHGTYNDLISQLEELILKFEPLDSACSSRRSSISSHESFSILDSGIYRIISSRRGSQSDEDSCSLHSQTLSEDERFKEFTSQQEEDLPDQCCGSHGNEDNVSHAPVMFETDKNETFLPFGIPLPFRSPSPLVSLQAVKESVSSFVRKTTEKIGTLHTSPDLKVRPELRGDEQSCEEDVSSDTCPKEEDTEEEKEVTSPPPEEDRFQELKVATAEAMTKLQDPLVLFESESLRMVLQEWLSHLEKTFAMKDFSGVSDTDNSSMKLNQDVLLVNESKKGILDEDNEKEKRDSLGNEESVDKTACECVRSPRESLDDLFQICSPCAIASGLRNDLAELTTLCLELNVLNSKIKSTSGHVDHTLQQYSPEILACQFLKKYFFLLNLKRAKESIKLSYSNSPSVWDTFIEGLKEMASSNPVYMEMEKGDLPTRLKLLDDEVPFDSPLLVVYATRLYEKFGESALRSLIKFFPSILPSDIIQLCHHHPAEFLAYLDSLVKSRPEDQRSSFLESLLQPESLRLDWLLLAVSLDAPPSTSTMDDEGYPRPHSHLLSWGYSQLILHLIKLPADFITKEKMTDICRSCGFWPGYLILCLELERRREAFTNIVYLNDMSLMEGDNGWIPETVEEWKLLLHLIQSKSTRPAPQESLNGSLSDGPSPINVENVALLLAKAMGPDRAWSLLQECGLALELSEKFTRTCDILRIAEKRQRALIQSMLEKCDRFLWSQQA
Chain of UniProt Q1KMD3 (Q1KMD3 whole entry): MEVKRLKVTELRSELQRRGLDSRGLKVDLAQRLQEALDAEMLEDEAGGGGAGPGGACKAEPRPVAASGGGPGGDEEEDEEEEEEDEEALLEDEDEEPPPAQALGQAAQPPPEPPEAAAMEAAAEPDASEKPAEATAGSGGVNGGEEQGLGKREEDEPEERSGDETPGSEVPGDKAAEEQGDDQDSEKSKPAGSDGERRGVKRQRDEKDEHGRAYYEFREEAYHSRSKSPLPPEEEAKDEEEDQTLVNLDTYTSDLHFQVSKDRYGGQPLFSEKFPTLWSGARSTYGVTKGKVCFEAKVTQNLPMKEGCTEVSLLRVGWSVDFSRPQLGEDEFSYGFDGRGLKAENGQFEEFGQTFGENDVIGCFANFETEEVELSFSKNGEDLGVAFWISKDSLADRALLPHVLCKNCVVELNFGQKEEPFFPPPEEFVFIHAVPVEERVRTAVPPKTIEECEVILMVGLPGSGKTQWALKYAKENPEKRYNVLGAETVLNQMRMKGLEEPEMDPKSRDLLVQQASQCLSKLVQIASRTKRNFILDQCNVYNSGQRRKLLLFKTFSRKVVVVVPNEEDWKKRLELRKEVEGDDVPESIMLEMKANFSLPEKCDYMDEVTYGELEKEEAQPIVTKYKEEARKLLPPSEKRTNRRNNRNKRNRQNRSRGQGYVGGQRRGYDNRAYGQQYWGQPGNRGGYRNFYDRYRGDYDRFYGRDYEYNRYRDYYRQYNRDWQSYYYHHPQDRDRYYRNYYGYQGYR
Chain of UniProt P51659 (P51659 whole entry): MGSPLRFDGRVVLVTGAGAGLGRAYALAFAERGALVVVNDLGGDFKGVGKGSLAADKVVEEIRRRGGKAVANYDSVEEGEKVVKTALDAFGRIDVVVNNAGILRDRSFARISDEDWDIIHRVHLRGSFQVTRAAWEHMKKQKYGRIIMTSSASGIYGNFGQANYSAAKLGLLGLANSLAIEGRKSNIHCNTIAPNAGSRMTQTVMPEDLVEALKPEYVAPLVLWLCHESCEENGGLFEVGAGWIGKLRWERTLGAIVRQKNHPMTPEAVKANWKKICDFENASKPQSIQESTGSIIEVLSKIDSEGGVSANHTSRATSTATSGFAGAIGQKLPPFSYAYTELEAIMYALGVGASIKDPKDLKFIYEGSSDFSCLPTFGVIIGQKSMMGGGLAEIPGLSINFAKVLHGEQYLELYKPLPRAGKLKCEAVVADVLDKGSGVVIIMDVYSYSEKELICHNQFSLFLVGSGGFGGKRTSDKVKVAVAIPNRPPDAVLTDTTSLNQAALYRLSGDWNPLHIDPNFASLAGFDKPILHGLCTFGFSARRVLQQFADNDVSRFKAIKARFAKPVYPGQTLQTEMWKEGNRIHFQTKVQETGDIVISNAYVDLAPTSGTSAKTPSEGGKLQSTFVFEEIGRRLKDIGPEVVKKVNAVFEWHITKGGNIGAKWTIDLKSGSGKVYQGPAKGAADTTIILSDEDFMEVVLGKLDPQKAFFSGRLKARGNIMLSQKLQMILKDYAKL
Chain of UniProt Q5SSJ5 (Q5SSJ5 whole entry): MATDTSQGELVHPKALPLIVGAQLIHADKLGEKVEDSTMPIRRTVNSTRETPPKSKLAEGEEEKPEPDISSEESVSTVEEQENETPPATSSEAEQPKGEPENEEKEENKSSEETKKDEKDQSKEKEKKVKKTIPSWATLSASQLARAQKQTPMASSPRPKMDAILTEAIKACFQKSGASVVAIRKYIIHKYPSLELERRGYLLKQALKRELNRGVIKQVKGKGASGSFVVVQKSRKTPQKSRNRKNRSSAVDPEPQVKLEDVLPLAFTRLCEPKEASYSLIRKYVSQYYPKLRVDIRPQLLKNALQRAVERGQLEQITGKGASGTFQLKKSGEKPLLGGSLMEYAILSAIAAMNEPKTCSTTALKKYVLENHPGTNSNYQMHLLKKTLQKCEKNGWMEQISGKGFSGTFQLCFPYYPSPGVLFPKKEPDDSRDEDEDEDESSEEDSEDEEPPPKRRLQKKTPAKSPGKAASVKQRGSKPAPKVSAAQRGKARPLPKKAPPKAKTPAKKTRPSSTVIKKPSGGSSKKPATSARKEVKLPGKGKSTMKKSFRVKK
Chain of UniProt Q9BUJ2 (Q9BUJ2 whole entry): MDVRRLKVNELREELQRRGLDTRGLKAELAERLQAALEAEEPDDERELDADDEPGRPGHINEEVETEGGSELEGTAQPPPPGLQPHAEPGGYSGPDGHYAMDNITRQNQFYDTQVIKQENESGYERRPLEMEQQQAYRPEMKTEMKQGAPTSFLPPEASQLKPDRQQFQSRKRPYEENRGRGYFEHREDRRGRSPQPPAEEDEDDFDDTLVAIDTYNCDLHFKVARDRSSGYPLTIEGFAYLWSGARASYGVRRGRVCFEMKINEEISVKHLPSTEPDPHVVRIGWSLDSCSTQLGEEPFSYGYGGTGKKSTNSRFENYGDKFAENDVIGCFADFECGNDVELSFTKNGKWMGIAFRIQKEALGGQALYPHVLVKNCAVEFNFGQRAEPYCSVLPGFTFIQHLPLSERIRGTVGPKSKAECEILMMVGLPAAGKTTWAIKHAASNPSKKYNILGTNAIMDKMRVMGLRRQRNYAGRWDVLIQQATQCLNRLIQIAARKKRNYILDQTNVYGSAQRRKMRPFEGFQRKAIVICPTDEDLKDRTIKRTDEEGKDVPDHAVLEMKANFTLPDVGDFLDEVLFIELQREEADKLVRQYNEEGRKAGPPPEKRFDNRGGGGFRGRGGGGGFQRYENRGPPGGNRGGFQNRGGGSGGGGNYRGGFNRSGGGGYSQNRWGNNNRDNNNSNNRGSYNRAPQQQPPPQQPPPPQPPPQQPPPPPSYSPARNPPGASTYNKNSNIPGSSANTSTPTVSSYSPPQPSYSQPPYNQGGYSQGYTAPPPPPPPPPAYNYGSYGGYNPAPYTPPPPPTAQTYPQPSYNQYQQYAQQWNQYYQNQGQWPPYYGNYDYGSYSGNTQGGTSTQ

Target	thermal stability z-score (potassium arsenate)	thermal stability z-score (lipoamide; [1])	thermal stability z-score (lipoamide; arsenate co-treatment: none)
HNRNPH2 (UniProt P55795)	-0.224	-0.319	-0.0126
HNRNPH3 (UniProt P31942)	-0.243	-0.175	0.0351
HNRNPK (UniProt P61978)	-1.69	-0.316	0.559
HNRNPL (UniProt P14866)	-2.57	0.204	0.05
HNRNPLL|HNRPLL	-0.917	-0.126	-0.082
HNRNPM (UniProt P52272)	-1.87	-0.523	-0.135
HNRNPR (UniProt O43390)	-1.96	0.306	-0.456
HNRNPU (UniProt Q00839)	0.509	0.572	1.39
HNRNPUL1 (UniProt Q9BUJ2)	0.283	0.162	0.44
HNRNPUL2 (UniProt Q1KMD3)	-0.392	0.105	0.057
HOMER1 (UniProt Q86YM7)	1.54	0.64	0.353
HOMER3 (UniProt Q9NSC5)	0.462	0.5	0.526
HOOK1 (UniProt Q9UJC3)	-0.199	-1.15	-0.591
HOOK2 (UniProt Q96ED9)	-0.0139	0.0635	-0.0859
HOOK3 (UniProt Q86VS8)	-0.272	-0.807	-0.326
HP1BP3 (UniProt Q5SSJ5)	-1.08	-0.693	-0.792
HPCAL1 (UniProt P37235)	0.342	1.09	1.31
HPD (UniProt P32754)	1.61	0.25	0.117

Target	thermal stability z-score (potassium arsenate)	thermal stability z-score (lipoamide; [1])	thermal stability z-score (lipoamide; arsenate co-treatment: none)
HPDL (UniProt Q96IR7)	1.13	1.09	0.497
HPRT1 (UniProt P00492)	0.0837	0.468	0.716
HPS3 (UniProt Q969F9)	-0.255	-0.021	0.206
HPS5 (UniProt Q9UPZ3)	-0.219	-0.0872	0.00734
HPS6 (UniProt Q86YV9)	-0.0451	0.00908	0.132
HRSP12 (UniProt P52758)	0.206	0.703	0.341
HS1BP3 (UniProt Q53T59)	-0.105	-0.135	0.097
HS2ST1 (UniProt Q7LGA3)	0.457	0.123	-0.171
HSCB (UniProt Q8IWL3)	0.175	0.0143	0.667
HSD17B4 (UniProt P51659)	0.201	0.258	0.497
HSD17B7 (UniProt P56937)	1.82	0.202	0.543
HSD17B8 (UniProt Q92506)	-0.785	0.281	0.0946
HSD17B10 (UniProt Q99714)	-1.29	0.921	0.151
HSD17B11 (UniProt Q8NBQ5)	0.265	0.563	0.342
HSD17B12 (UniProt Q53GQ0)	0.614	0.28	0.0767
HSDL1 (UniProt Q3SXM5)	-1.43	-0.0659	-0.0958
HSDL2 (UniProt Q6YN16)	0.41	0.183	0.156
HSF1 (UniProt Q00613)	-0.185	-0.332	-0.199
